Measurements published in patent publication EP0856015B1, “NEW POLYACRYLAMIDE MATRICES IN ELECTROPHORETIC AND CHROMATOGRAPHIC TECHNIQUES” (RIGHETTI, Pier Giorgio, priority 1995, dated 1997).

Columns and labels:
[1] = Partitioning of monomers between water and n-octanol, aqueous phase analysed by CZE; format: physicochemical; conditions: 2 mM monomer, 25°C
Description: To that aim, aqueous solutions of these monomers have been subjected to partitioning against n-octanol. After partitioning, the aqueous phase is analyzed by capillary electrophoresis and the molar ratio of the various monomers in the two phases determined. […] Hydrophobicity scale of acrylamide and N-substituted derivatives. Each monomer was dissolved in aqueous solution (3.5 mL) at a concentration of 2 mM and mixed with an equal volume of n-octanol for 2 min. After phase separation, the aqueous solution is centrifuged for 75 min at 2000 rpm. All operations at 25°C. The solution, after dilution, is added with internal standard (2.5 mM of pK 9.3 Immobiline) and analyzed by CZE. For abbreviations see Fig. 1. Other abbreviations: MMA: […] ACM: N-acryloyl morpholine; […]: dideoxy […].

[2] = Hydrolysis kinetics of free monomers under mild alkaline conditions, residual monomer quantified by capillary electrophoresis; conditions: 0.1N NaOH, 70°C

## C=CC(=O)NCCCCO [AAB]
[1]
  hydrophilicity (from partition coefficients P): close to that of acrylamide
[1]; read-out: partition coefficient P (converted)
  logP: -0.62

## C=CC(=O)NCCCO [AAP]
[2]
  degradation kinetics: first order kinetics
  hydrolysis constant (K): 0.00013 M⁻¹ s⁻¹
  hydrolysis constant, times smaller than that of acrylamide: 8 times
[1]
  hydrophilicity (from partition coefficients P): twice as hydrophilic as acrylamide

## C=CC(=O)N1CCOCC1 [N-acryloyl morpholine, reference compound]
[2]
  degradation kinetics: a more rapid degradation kinetic

## C=CC(=O)NC(CO)(CO)CO [Trisacryl, N-acryloyl-2-amino-2-hydroxymethyl-1,3 propandiol, reference compound]
[2]
  degradation kinetics: zero-order kinetics
[1]
  hydrophilicity (from partition coefficients P): by far the most hydrophilic molecule
